Drawing on US11234961B2, “Pamoate salt of monoamine anti-Parkinson's agents, method of preparation and use thereof” (priority 2017, dated 2022), this text covers crystalline form conversion for two substances.

Read-outs that look alike come from different tables or passages of the source.

With Pramipexole Pamoate [Example 8], the crystalline form conversion result (upon standing at room temperature after 7 days) is listed as “started converting into the crystalline form depicted in Example 7”.
For Pramipexole Pamoate [Example 9], the crystalline form conversion result (placed in the dry box at room temperature) was “converting into amorphous state”.
